Assay in all cases: inhibition of tumour cell growth, NCI panel, 48 h
Assay [1] relates to PC-3.
Assay [2] deals with U-251.
For assay [3], the system named is SNB-19.
For assay [4], the system named is SF-539.
The subject of assay [5] is HT-29.
For assay [6], the system named is K562.
The subject of assay [7] is CCRF-CEM.
In assay [8] the test system is T47D.
Assay [9] concerns MOLT-4.
Assay [10] has as its system MCF7.
Assay [11] deals with SW-620.
The test system of assay [12] is SK-MEL-5.
Assay [13] deals with NCI-H522.
For assay [14], the system named is MDA-N.
The subject of assay [15] is HCC 2998.
For assay [16], the system named is DU-145.
The subject of assay [17] is NCI/ADR-RES.
Assay [18] concerns CAKI-1.
The test system of assay [19] is Hs-578T.

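These data come from cells grown in 96-well plates and exposed to compound for 48 hours at five concentrations. GI50 marks 50% less growth.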 The source made the active and inactive calls. No stated cut-off is given here; in the data, active = GI50 up to about 1.1 µM and inactive = higher. Where only a bound is given, the exact number is not on record here.

`CO/N=C(\C(=O)Nc1cncs1)c1csc(NC(c2ccccc2)(c2ccccc2)c2ccccc2)n1`: the GI50 in assay [1] is 4.38 µM (inactive); in [2] it was > 10 µM (inactive); in [3] it was > 10 µM (inactive); in assay [4], 0.628 µM (active); in assay [5] it was 4.63 µM (inactive); in [6] it was > 10 µM (inactive). In addition, the GI50 is 3.81 µM (inactive) in [7]; 6.52 µM (inactive) in [8]; 3.31 µM (inactive) in assay [9]; 6.08 µM (inactive) in assay [10]; > 10 µM (inactive) in assay [11]; > 10 µM (inactive) in assay [12]. Also, the GI50 was > 10 µM (inactive) in [13]; > 10 µM (inactive) in [14]; 8.53 µM (inactive) in assay [15]; > 10 µM (inactive) in assay [16]; > 10 µM (inactive) in assay [17]; > 10 µM (inactive) in [18]. In [19], the GI50 is > 10 µM (inactive).

Turning to `Cc1ccc(C(=O)Cc2nc3ncccc3[nH]c2=O)cc1`, the GI50 was 43.9 µM (inactive) in assay [1]; 22.5 µM (inactive) in assay [2]; 6.15 µM (inactive) in assay [3]; 30.5 µM (inactive) in assay [4]; 59.6 µM (inactive) in assay [5]; > 100 µM (inactive) in assay [6]. The GI50 in [7] is > 100 µM (inactive); in assay [8], 45.5 µM (inactive); in assay [9], 70.3 µM (inactive); in [10], 49.9 µM (inactive); in [11], 80 µM (inactive); in [12], 40.8 µM (inactive). Also, the GI50 was 48.3 µM (inactive) in assay [13]; 74.8 µM (inactive) in [14]; 51.5 µM (inactive) in [15]; 58.2 µM (inactive) in assay [16]; 59 µM (inactive) in assay [17]; 65.5 µM (inactive) in assay [18]. Also, in [19], the GI50 is 13.3 µM (inactive).

As to `O=C(/C=C/c1ccc(O)c(O)c1)OCC(OC(=O)/C=C/c1ccc(O)c(O)c1)C(=O)O` (centres undefined), the GI50 in [1] is > 100 µM (inactive); in assay [2], 63.7 µM (inactive); in [3], > 100 µM (inactive); in assay [4], > 100 µM (inactive); in [5], > 100 µM (inactive); in assay [6] it was > 100 µM (inactive). Also, the GI50 in assay [7] was 48 µM (inactive); in [8], > 100 µM (inactive); in assay [9], 63.4 µM (inactive); in [10] it was > 100 µM (inactive); in [11] it was 50.8 µM (inactive); in assay [12], > 100 µM (inactive). Moreover, the GI50 in assay [13] was 84.7 µM (inactive); in [14], > 100 µM (inactive); in assay [15] it was > 100 µM (inactive); in assay [16], > 100 µM (inactive); in assay [17], > 100 µM (inactive); in assay [18], > 100 µM (inactive). In assay [19], the GI50 is > 100 µM (inactive).

Turning to `Cc1c(C)c2c(c(N)c1C#N)C(=O)N(Nc1ccccc1)C2=O`, the GI50 in [1] is 57.3 µM (inactive); in assay [2], 43.5 µM (inactive); in assay [3], 39.1 µM (inactive); in assay [4], 40.1 µM (inactive); in [6], > 100 µM (inactive); in [7], 97.1 µM (inactive). For the same molecule, the GI50 in assay [8] was 9.95 µM (inactive); in assay [9], 92.7 µM (inactive); in [10], 60.1 µM (inactive); in assay [11] it was > 100 µM (inactive); in assay [12], > 100 µM (inactive); in assay [13], 29.2 µM (inactive). Moreover, the GI50 in assay [14] was > 100 µM (inactive); in assay [15], > 100 µM (inactive); in assay [16] it was > 100 µM (inactive); in assay [17], 52.4 µM (inactive); in assay [18], > 100 µM (inactive); in assay [19] it was 46.7 µM (inactive).

As to `COC(=O)c1sc2c(Cl)c(Cl)sc2c1Cl`, the GI50 was > 100 µM (inactive) in assay [1]; 97.5 µM (inactive) in assay [2]; > 100 µM (inactive) in assay [3]; 66.7 µM (inactive) in assay [4]; > 100 µM (inactive) in assay [5]; > 100 µM (inactive) in assay [6]. Moreover, the GI50 in [7] is > 100 µM (inactive); in assay [8] it was > 100 µM (inactive); in assay [9], > 100 µM (inactive); in assay [10], 50.5 µM (inactive); in assay [11], > 100 µM (inactive); in [12] it was > 100 µM (inactive). The GI50 in [13], in assay [14], in assay [15], in assay [16], in [17] and in assay [18] was > 100 µM (inactive) in each case. Besides, the GI50 in assay [19] was > 100 µM (inactive).

In the case of `O=C(O)[C@H](CCC[C@H]1C(=O)O[C@H](c2ccccc2)[C@H](c2ccccc2)N1C(=O)OCc1ccccc1)N[C@@H](c1ccccc1)[C@H](O)c1ccccc1`, the GI50 is 37.1 µM (inactive) in assay [1]; 16 µM (inactive) in [2]; 30.3 µM (inactive) in [3]; 18.6 µM (inactive) in assay [4]; 28.6 µM (inactive) in assay [5]; 36.8 µM (inactive) in [6]. Also, the GI50 in [7] is 20 µM (inactive); in assay [8], 43.3 µM (inactive); in [9], 24.3 µM (inactive); in assay [10], 28.3 µM (inactive); in [11], 25.1 µM (inactive); in assay [12] it was 18.5 µM (inactive). The GI50 was 15.5 µM (inactive) in assay [13]; 21.7 µM (inactive) in assay [14]; 21 µM (inactive) in assay [15]; > 100 µM (inactive) in assay [16]; > 100 µM (inactive) in assay [17]; > 100 µM (inactive) in [18]. Moreover, in [19], the GI50 is 25.4 µM (inactive).

For `COC(=O)[C@H]1[C@@H](O)[C@@]2(O)c3c(OC)cc(OC)cc3O[C@@]2(c2ccc3c(c2)OCO3)[C@@H]1c1ccccc1`, the GI50 in assay [1] is 0.0113 µM (active); in assay [2] it was 0.00706 µM (active); in assay [3], < 0.005 µM (active); in assay [4] it was < 0.005 µM (active); in assay [5], < 0.005 µM (active); in assay [6], < 0.005 µM (active). In addition, the GI50 in assay [7] was 0.00607 µM (active); in assay [8] it was 0.00516 µM (active); in [9] it was < 0.005 µM (active); in assay [10], < 0.005 µM (active); in [11], < 0.005 µM (active); in [12], 0.00757 µM (active). Besides, the GI50 in assay [13] was < 0.0122 µM (active); in assay [14], 0.00513 µM (active); in assay [15], 0.00838 µM (active); in [16], 0.00873 µM (active); in assay [17], 0.00893 µM (active); in assay [18] it was 0.00893 µM (active). Besides, the GI50 in [19] is 0.0146 µM (active).

With `COc1cc2c3cc1Oc1c(O)c(OC)cc4c1[C@H](Cc1ccc(cc1)Oc1cc(ccc1O)C[C@H]3N(C)CC2)N(C)CC4`, the GI50 in assay [1] is 8.51 µM (inactive); in assay [2], 9.48 µM (inactive); in assay [3], 20.9 µM (inactive); in assay [4], 3.23 µM (inactive); in assay [5] it was 3.84 µM (inactive); in assay [6] it was 2.56 µM (inactive). For the same molecule, the GI50 was 10.4 µM (inactive) in [7]; 17.9 µM (inactive) in [8]; 8.41 µM (inactive) in assay [9]; 13.3 µM (inactive) in assay [10]; 16.5 µM (inactive) in assay [11]; 7.33 µM (inactive) in assay [12]. Also, the GI50 in [13] was 11 µM (inactive); in assay [14], 10.7 µM (inactive); in assay [15], 7.05 µM (inactive); in assay [16], 15.1 µM (inactive); in assay [17], 24.5 µM (inactive); in [18], 25.9 µM (inactive). Also, in assay [19], the GI50 was 20 µM (inactive).

As to `Cc1ccc(NC(Nc2ccc(C)cc2C)=C(/C=C(\Cl)[N+](=O)[O-])[N+](=O)[O-])c(C)c1`, the GI50 was 7.03 µM (inactive) in assay [1]; 11.5 µM (inactive) in [2]; 12.9 µM (inactive) in [3]; 8.85 µM (inactive) in assay [4]; 5.43 µM (inactive) in [5]; 1.46 µM (inactive) in assay [6]. In addition, the GI50 in assay [7] is 0.301 µM (active); in assay [8], 1.72 µM (inactive); in assay [9], 1.53 µM (inactive); in assay [10], 2.83 µM (inactive); in assay [11], 1.91 µM (inactive); in assay [12], 5.9 µM (inactive). The GI50 in assay [13] is 2.37 µM (inactive); in assay [14], 3.37 µM (inactive); in [15] it was 23.3 µM (inactive); in assay [16] it was 18.5 µM (inactive); in assay [17], 17.1 µM (inactive); in assay [18] it was 2.08 µM (inactive). Besides, the GI50 in assay [19] is 6.71 µM (inactive).

Take `Oc1ccc(Cl)cc1CN1CCN(Cc2cc(Cl)ccc2O)C1`: the GI50 is 0.206 µM (active) in assay [1]; 1.11 µM (active) in assay [2]; 2.86 µM (inactive) in assay [3]; 0.946 µM (active) in assay [4]; 1.87 µM (inactive) in assay [5]; 1.39 µM (inactive) in assay [6]. For the same molecule, the GI50 in assay [7] is 0.0603 µM (active); in assay [8], 1.84 µM (inactive); in assay [9], 0.174 µM (active); in assay [10], 10.5 µM (inactive); in assay [11] it was 0.547 µM (active); in assay [12], 0.973 µM (active). In addition, the GI50 is 3.31 µM (inactive) in assay [13]; 1.79 µM (inactive) in assay [14]; 1.03 µM (active) in [15]; 1.92 µM (inactive) in assay [16]; 0.152 µM (active) in assay [17]; 1.88 µM (inactive) in [18]. In addition, in assay [19], the GI50 was 3.82 µM (inactive).

Source of the values: ChEMBL document CHEMBL1201862, “PubChem BioAssay data set” (2004).
